Measurements taken from paper PMC7985445, “Characterization of Plasmodium falciparum Pantothenate Kinase and Identification of Its Inhibitors From Natural Products” (Frontiers in Cellular and Infection Microbiology, 2021).
Like-named read-outs stand apart in the source and are kept apart here.

Key:
PfPanK1 [1] = biological target: T1, PfPanK1 (Plasmodium falciparum, UniProt Q8ILP4); assay: Screening of natural compounds for PfPanK inhibitors and IC50 determination (recombinant enzyme, ADP Hunter Plus); assay type: biochemical
T1 sequence (Q8ILP4 1-519): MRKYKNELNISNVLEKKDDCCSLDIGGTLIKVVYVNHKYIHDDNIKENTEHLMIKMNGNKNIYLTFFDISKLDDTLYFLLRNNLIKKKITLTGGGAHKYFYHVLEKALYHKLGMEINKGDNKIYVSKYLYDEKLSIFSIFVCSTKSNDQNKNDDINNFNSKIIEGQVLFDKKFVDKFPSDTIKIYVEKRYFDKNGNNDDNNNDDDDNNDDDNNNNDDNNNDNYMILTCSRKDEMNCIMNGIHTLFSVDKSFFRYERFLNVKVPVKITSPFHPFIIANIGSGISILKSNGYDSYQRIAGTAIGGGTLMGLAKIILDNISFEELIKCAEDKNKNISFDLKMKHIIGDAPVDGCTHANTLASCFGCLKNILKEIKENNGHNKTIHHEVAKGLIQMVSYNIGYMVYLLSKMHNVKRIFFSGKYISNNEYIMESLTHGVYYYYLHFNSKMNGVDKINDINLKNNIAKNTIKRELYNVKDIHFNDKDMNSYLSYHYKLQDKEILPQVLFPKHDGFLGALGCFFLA
Description: We screened 247 compounds from the Kitasato Natural Products Library ([Mori et al., 2015]; [Nurkanto et al., 2018]) against PfPanK recombinant enzyme. Compounds were dissolved in 50% DMSO at a final concentration of 1 mg/ml.

PfPanK1 [2] = biological target: T1, PfPanK1; assay type: biochemical
[3] = system: P. falciparum K1 and FCR3 strain; conditions: cited from earlier work
[4] = substrate pair pantetheine and ATP
[5] = primary screening; compound at 50 µM final concentration (methods: 50 µg/ml); 37°C, 2 h
[6] = metal ion 5 mM, substrate pantetheine, relative to MgCl2, pH 8.4, 37°C
[7] = metal ion 5 mM, substrate pantothenate, relative to MgCl2, pH 8.4, 37°C

Compound: CC(/C=C/C(=O)NO)=C\[C@@H](C)C(=O)c1ccc(N(C)C)cc1 [Trichostatin]
- inhibition (PfPanK1 [1]; primary screening; 37°C, 2 h): 47.2%

Compound: [Cl-].[Na+] [NaCl]
- Relative activity (%) Pantetheine (PfPanK1 [2]; pH 8.4): 33.1 ± 6.2%
- Relative activity (%) Pantothenate (PfPanK1 [2]; pH 8.4): 41.4 ± 5.3%

Compound: CC(C)(CO)[C@@H](O)C(=O)NCCC(=O)NCCS [Pantetheine]
- V max (PfPanK1 [2]; [4]): 19.6 ± 1.2 µmol/min/mg
- k cat (PfPanK1 [2]; [4]): 19.52 ± 0.417 s⁻¹
- k cat/K m (PfPanK1 [2]; [4]): 25.6 ± 0.7 min^-1µM^-1
- K m (PfPanK1 [2]; substrate pair pantetheine and ATP, 120 µM ATP or 100 µM pantetheine, 37°C): 45.7 ± 6.9 µM

Compound: O=c1ccn([C@@H]2O[C@H](COP(=O)(O)OP(=O)(O)OP(=O)(O)O)[C@@H](O)[C@H]2O)c(=O)[nH]1 [UTP]
- Relative activity (%) Pantetheine (PfPanK1 [2]; pH 8.4): 23.8 ± 2.3%
- Relative activity (%) Pantothenate (PfPanK1 [2]; pH 8.4): 64.1 ± 1.0%

Compound: CN[C@@H]1[C@H](O)[C@H](NC)[C@H]2O[C@@]3(O)C(=O)C[C@@H](C)O[C@H]3O[C@@H]2[C@H]1O [Spectinomycin (Trobicin), Spectinomycin]
- inhibition (PfPanK1 [1]; 2 h, primary screening; 37°C): 47.8%

Compound: Gramicidin NF
- PfPanK1 Inhibition (%) (PfPanK1 [1]; [5]): 45.5%

Compound: [Cl-].[Cl-].[Mg+2] [MgCl2]
- Relative activity (%) Pantetheine (PfPanK1 [2]; [6]): 100%
- Relative activity (%) Pantothenate (PfPanK1 [2]; [7]): 100%

Compound: NC[C@@H]1O[C@H](O[C@H]2[C@@H](O)[C@H](O[C@@H]3[C@@H](O)[C@H](N)C[C@H](N)[C@H]3O[C@H]3O[C@H](CO)[C@@H](O)C[C@H]3N)O[C@@H]2CO)[C@H](N)[C@@H](O)[C@@H]1O[C@H]1O[C@H](CO)[C@@H](O)[C@H](O)[C@@H]1O [Lividomycin A]
- inhibition (PfPanK1 [1]; 2 h, primary screening; 37°C): 44%

Compound: CON1C(=O)[C@H]2NC(=O)[C@]13Oc1cc(O)c(Cl)cc1[C@@H]3SS2 [Aspirochlorine]
- inhibition (PfPanK1 [1]; 2 h, primary screening; 37°C): 49.7%

Compound: CC(=O)SCCNC(=O)CCNC(=O)[C@H](O)C(C)(C)COP(=O)(O)OP(=O)(O)OC[C@H]1O[C@@H](n2cnc3c(N)ncnc32)[C@H](O)[C@@H]1OP(=O)(O)O [Acetyl CoA]
- Effect on PfPanK1 activity (PfPanK1 [2]; pantetheine as substrate, 100 μM ATP, pH 8.4, 37°C): did not affect PfPanK1 activity
- IC50 (PfPanK1 [2]; pantothenate as substrate): > 1000 µM

Compound: Nc1nc2c(ncn2[C@@H]2O[C@H](COP(=O)(O)OP(=O)(O)OP(=O)(O)O)[C@@H](O)[C@H]2O)c(=O)[nH]1 [GTP]
- Relative activity (%) Pantetheine (PfPanK1 [2]; pH 8.4): 106.5 ± 4.4%
- Relative activity (%) Pantothenate (PfPanK1 [2]; pH 8.4): 107.6 ± 8.1%

Compound: C/C=C\C=C\[C@@H]1O[C@](O)([C@H](CC)C(=O)NC/C=C/C=C(\C)[C@@H](OC)[C@@H](C)[C@@H]2O[C@H](/C=C/C=C/C=C(\C)C(=O)c3c(O)ccn(C)c3=O)[C@H](O)[C@@H]2O)[C@H](O)[C@H](O)C1(C)C [Aurodox]
- PfPanK1 Inhibition (%) (PfPanK1 [1]; [5]): 52.2%

Compound: Nc1ncnc2c1ncn2[C@H]1C[C@H](O)[C@@H](COP(=O)(O)OP(=O)(O)OP(=O)(O)O)O1 [dATP]
- Relative activity (%) Pantetheine (PfPanK1 [2]; pH 8.4): 8.5 ± 2.7%
- Relative activity (%) Pantothenate (PfPanK1 [2]; pH 8.4): 9.0 ± 2.2%

Compound: [Cl-].[Cl-].[Zn+2] [ZnCl2]
- Relative activity (%) Pantetheine (PfPanK1 [2]; [6]): 29.0 ± 0.6%
- Relative activity (%) Pantothenate (PfPanK1 [2]; [7]): 35.6 ± 5.6%

Compound: [Cl-].[K+] [KCl]
- Relative activity (%) Pantetheine (PfPanK1 [2]; [6]): 33.6 ± 3.4%
- Relative activity (%) Pantothenate (PfPanK1 [2]; [7]): 29.7 ± 2.3%

Compound: [Cl][Ni][Cl] [NiCl2]
- Relative activity (%) Pantetheine (PfPanK1 [2]; [6]): 41.4 ± 3.4%
- Relative activity (%) Pantothenate (PfPanK1 [2]; [7]): 49.0 ± 5.5%

Compound: [Ca+2].[Cl-].[Cl-] [CaCl2]
- Relative activity (%) Pantetheine (PfPanK1 [2]; [6]): 30.5 ± 1.6%
- Relative activity (%) Pantothenate (PfPanK1 [2]; [7]): 39.9 ± 4.7%

Compound: CC(=O)Oc1cccc2c(=O)c3c4c(c(=[N+]=[N-])c=3c(=O)c12)C(OC(C)=O)C(C)(OC(C)=O)C(OC(C)=O)C4OC(C)=O (stereo not drawn) [Diacetylkinamycin C]
- inhibition (PfPanK1 [1]; primary screening; 37°C, 2 h): 96.1%
- IC50 (PfPanK1 [1]; recombinant PfPanK1; mean ± SEM): 36.2 ± 4.7 µM
- IC50 ([3]; FCR3 strain, ref Shimizu el al., 2019, unpublished, read-out: IC50 P. falciparum erythrocytic stages): 1.1 µM
- IC50 ([3]; K1 strain, ref Shimizu el al., 2019, unpublished, read-out: IC50 P. falciparum erythrocytic stages): 2.2 µM
- IC50 ([3]; range over drug-resistant K1 and drug-sensitive FCR3 strain, ref Shimizu et al., 2019, unpublished, read-out: IC50 against P. falciparum): 1.1 to 2.2 µM

Compound: C=C/C(C)=C/[C@@]1(C)SC(=O)C(C)=C1O [Thiolactomycin]
- inhibition (PfPanK1 [1]; primary screening; 37°C, 2 h): 42.4%

Compound: [Cl-].[Li+] [LiCl2]
- Relative activity (%) Pantetheine (PfPanK1 [2]; [6]): 32.6 ± 4.1%
- Relative activity (%) Pantothenate (PfPanK1 [2]; [7]): 37.9 ± 9.6%

Compound: Gardimycin
- PfPanK1 Inhibition (%) (PfPanK1 [1]; [5]): 42.5%
